Data: patent US20150045610A1, “METHOD OF MODIFYING SPERMATOGENESIS, SPERMIOGENESIS AND/OR FERTILITY IN MAMMALS” (Monell Chemical Senses Center, priority 2012, published 2015)
Values after ≈ are worked out from the molar mass of the structure shown.

Experiments:
PDE 8 = conditions: read-out: IC50, PDE 8; cited from earlier work
PDE 1 = conditions: cited from earlier work
solubility = format: physicochemical
humanized mhT1R3 = target: T1, humanized mhT1R3 (Homo sapiens, UniProt Q7RTX0, A109T/A120V/A176D/A197V/A198V/A228S/A231N/A248T/A280V/A282S/A302S/A412V/A417V/A46T/A537T/C375D/D124S/D249S/D250G/D364H/D419E/D470T/D491G/D88A/DEL352-352/DEL488-489/E172D/E199T/E203N/E217D/E356N/E45S/E481Q/E505D/E525K/E545Q/F540P/F555L/G168S/G205S/G311T/G314N/G355L/G360D/G414H/G438R/G439D/G463S/G50T/G542N/H261R/H278R/H281Y/H332P/I485M/I536F/INS376MLQNLSSG/K32Q/K339E/K422L/K494V/K86G/L173R/L245Q/L272V/L29F/L354S/L385Q/L433M/L458M/L483S/L71F/L74M/M151L/M315I/M318V/M31A/N285S/N386L/N532H/N68L/P112S/P246H/P335S/P416H/P420H/P441T/P60I/Q221E/Q257L/Q317R/Q330L/Q336H/Q359L/Q372R/Q418S/Q504K/Q531K/R123Q/R247D/R252Q/R291G/R30K/R357A/R443Q/R467V/R473T/R479Q/R482Q/R486Y/R498Q/R52N/R550K/R553A/R556P/R560K/R56Q/S251Q/S267K/S289H/S290H/S392A/S446A/S447E/S464P/S477T/S490P/S53Q/S559P/S58N/S67P/T195Q/T346A/T377L/T390I/T434S/T480L/T63N/V152I/V277A/V366M/V36I/V381L/V393T/V437A/V465T/V61P/W72L); experiment: T1R3 pharmacological block with clofibrate diet (male reproduction); format: in vivo, mouse; conditions: clofibrate diet 300 mg/kg body weight, line 7c and WT males
T1 construct: the extracellular domain is of mouse origin and the transmembrane and intracellular domains of human origin; mouse T1R3 extracellular domain (fusion partner replacing the human extracellular domain); expressed in transfected cells; host or cells: transgenic Line 7c mice (T1R3-/-, Gus-/-, mhT1R3+/-)
T1 sequence (Q7RTX0 with tags, fused parts or gaps L29F/R30K/M31A/K32Q/V36I/E45S/A46T/G50T/R52N/S53Q/R56Q/S58N/P60I/V61P/T63N/S67P/N68L/L71F/W72L/L74M/K86G/D88A/A109T/P112S/A120V/R123Q/D124S/M151L/V152I/G168S/E172D/L173R/A176D/T195Q/A197V/A198V/E199T/E203N/G205S/E217D/Q221E/A228S/A231N/L245Q/P246H/R247D/A248T/D249S/D250G/S251Q/R252Q/Q257L/H261R/S267K/L272V/V277A/H278R/A280V/H281Y/A282S/N285S/S289H/S290H/R291G/A302S/G311T/G314N/M315I/Q317R/M318V/Q330L/H332P/P335S/Q336H/K339E/T346A/DEL352-352/L354S/G355L/E356N/R357A/Q359L/G360D/D364H/V366M/Q372R/C375D/INS376MLQNLSSG/T377L/V381L/L385Q/N386L/T390I/S392A/V393T/A412V/G414H/P416H/A417V/Q418S/D419E/P420H/K422L/L433M/T434S/V437A/G438R/G439D/P441T/R443Q/S446A/S447E/L458M/G463S/S464P/V465T/R467V/D470T/R473T/S477T/R479Q/T480L/E481Q/R482Q/L483S/I485M/R486Y/DEL488-489/S490P/D491G/K494V/R498Q/Q504K/E505D/E525K/Q531K/N532H/I536F/A537T/F540P/G542N/E545Q/R550K/R553A/F555L/R556P/S559P/R560K limits assumed): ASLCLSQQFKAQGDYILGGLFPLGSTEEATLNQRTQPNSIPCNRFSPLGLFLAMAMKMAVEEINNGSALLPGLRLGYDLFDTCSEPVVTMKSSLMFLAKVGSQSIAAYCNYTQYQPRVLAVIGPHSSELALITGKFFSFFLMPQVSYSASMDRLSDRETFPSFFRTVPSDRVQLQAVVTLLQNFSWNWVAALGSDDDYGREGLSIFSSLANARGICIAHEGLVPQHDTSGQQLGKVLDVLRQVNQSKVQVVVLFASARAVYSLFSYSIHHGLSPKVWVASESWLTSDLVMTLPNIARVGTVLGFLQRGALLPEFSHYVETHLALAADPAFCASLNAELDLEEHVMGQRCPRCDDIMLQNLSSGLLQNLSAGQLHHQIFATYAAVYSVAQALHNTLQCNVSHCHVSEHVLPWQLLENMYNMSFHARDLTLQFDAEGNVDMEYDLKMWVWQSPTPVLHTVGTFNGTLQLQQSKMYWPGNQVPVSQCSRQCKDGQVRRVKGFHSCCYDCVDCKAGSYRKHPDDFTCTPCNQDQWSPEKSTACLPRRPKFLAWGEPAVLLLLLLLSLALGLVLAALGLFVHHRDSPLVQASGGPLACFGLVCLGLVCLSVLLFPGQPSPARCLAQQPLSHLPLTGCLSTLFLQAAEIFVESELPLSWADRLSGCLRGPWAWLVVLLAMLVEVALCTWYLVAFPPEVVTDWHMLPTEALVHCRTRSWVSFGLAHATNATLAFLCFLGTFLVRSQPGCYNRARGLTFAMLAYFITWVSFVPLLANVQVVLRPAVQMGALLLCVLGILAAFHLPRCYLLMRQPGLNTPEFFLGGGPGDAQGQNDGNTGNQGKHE
Description: Matched groups (six males each) of WT and line 7c mice (expressing the chimerical mhT1R3 transgene on a T1R3/α-gustducin double-null background), 3-6 months old, were fed the indicated diets for 4-6 weeks. Each genotype was tested in two groups, one on the regular diet and one on a test diet with clofibrate. An additional group of males stayed on the test diet for another 4-6 weeks, during which time they were mated with WT females to determine whether the pharmacological intervention was effective. Then the animals were allowed to recover on the regular diet for an additional 4 weeks after the end of the treatment (half-time for total sperm turnover in mice), and again were tested for their reproductive capacity, and then their tissues were analyzed. […]
We observed spermatozoa after clofibrate treatment represent cells that were able to escape the inhibition of clofibric acid, most likely due to very fast clearance and fluctuating levels in rodents. […] Therefore, we measured sperm concentration as an indicator of efficiency of the pharmacological block and to be able to determine the concentration that results in effective sterility. We analyzed testicular morphology, sperm production, sperm motility and sperm function in in vitro fertilization after feeding these animals with the lipid lowering drug clofibrate. […]

PDE 4 = conditions: quantity not given; read-out: inhibition of PDE 4; cited from earlier work

Q: Which IC50 (PDE 8) does the source give for `OCCN(CCO)c1nc(N2CCCCC2)c2nc(N(CCO)CCO)nc(N3CCCCC3)c2n1` [Dipyridamole] here?
A: The IC50 was 4 to 9 µM.

Q: Which IC50 (PDE 1) does the source give for `CCOC(=O)C1=C[C@]2(CC)CCCN3CCc4c(n1c1ccccc41)[C@@H]32` [Vinpocetine] here?
A: Its IC50 is 10 µM.

Q: For `CCOC(=O)C(C)(C)Oc1ccc(Cl)cc1` [clofibrate], which solubility (solubility) is on record?
A: Its solubility is 5000 µg/mL (≈ 20.6 mM).

Q: And the “effect on the health of the animals” value (humanized mhT1R3)?
A: Its value is “no apparent effect”.
